From publication PMC3337405 (Cancer Chemotherapy and Pharmacology, 2012)
Several values for one entry are separate records, joined by “and”; a condition that tells them apart may be missing. Equal values may be shown once. Values belong to the molecule of their own block, whether it stands above or below them.

Assays:
[1] = Plasma pharmacokinetics, noncompartmental analysis
Experimental: (§2) Blood samples for PK analysis were collected predose and 0.5, 1, 2, 3, 4, 8, 12, and 24 h post dose on days 1 and 3 at the same time as ECG assessments. […] Noncompartmental analysis (WinNonlin™ version 5.2, Pharsight, Sunnyvale, California) was performed to determine the following PK parameters: C max, T max, minimum (trough) plasma concentration over a dosing interval (C min), and AUC calculated using a trapezoidal method. For moxifloxacin, the AUC from time 0 to the last measurable concentration sampling time was calculated (AUC0–tlast).

healthy volunteers [2] = assay: Concentration–QT linear random-effects model; format: in vivo, human; settings: for concentration versus QTcF slope: plasma concentration of the analyte after midostaurin dosing, day 3
Excerpt: Baseline QTcF was included in the model as a covariate. […] This exploratory analysis was applied to both the change from the time-matched baseline and the change from time-averaged baseline.

[3] = cited from earlier work
[4] = human, in vivo
Experimental: as §2

healthy volunteers [5] = assay: Outlier analysis of QTc and other ECG parameters, ECG morphology; format: in vivo, human; settings: for QTcB >30 ms, time-matched change from baseline, participants: text: 30- to 60-ms category
Experimental: Outlier analysis for QTc was also exploratory because this study was not powered to detect individuals with genetic sensitivity to potential QT-prolonging drugs. The nonspecific outlier criterion was a change from baseline in QTc interval of 30–60 ms.
(§1) Standard triplicate 12-lead ECGs were obtained at 9 time points over 24 h at baseline on day 3 and at 2 time points on day 1. Electrocardiogram analysis was performed at a blinded central reading facility (ERT, East Bridgewater, NJ) in digital format, with paper tracings obtained and archived immediately on site. Vital signs were assessed daily. Clinical laboratory parameters were assessed at baseline and at the end of study. Self-reported adverse events were continuously recorded from the first study treatment (placebo, day −1) through the end of study on day 4.

QTcF interval = settings: cited from earlier work
healthy volunteers [6] = assay: Thorough QT/QTc study: QTcF change from baseline on day 3 (12-lead ECG); format: in vivo, human
Excerpt: This study was a phase I, randomized, double-blind, placebo- and active-controlled, 3-way, parallel-group study conducted at a single center in the United States and approved by the Arkansas Research Medical Testing, LLC, Institutional Review Board. The design followed the recommendations of the International Conference on Harmonisation of Technical Requirements for Registration of Pharmaceuticals for Human Use (ICH) E14 guideline on “The Clinical Evaluation of QT/QTc Interval Prolongation and Proarrhythmic Potential for Non-Antiarrhythmic Drugs” [19]. As such, the trial included a concurrent positive control group and addressed intrinsic variability by conducting multiple ECGs at baseline and during the study. The study was conducted according to the ethical principles of the Declaration of Helsinki, and written informed consent was obtained from each subject during screening.
The treatment regimen was selected to achieve maximal plasma exposure for QTc evaluation while minimizing the risks of excessive or prolonged exposure in healthy volunteers.
The baseline comparison was from day −1 to day 3 at matched time points.
The following hypothesis was tested to confirm that the study had sufficient assay sensitivity: [drawing 3] [drawing 4] where μmoxi(t) was the mean QTcF change from baseline observed following moxifloxacin 400 mg at time point t. If the null hypothesis was rejected, the study had sufficient sensitivity. The Simes method was used for the protection of an experiment-wise 5% type I error [22, 23]. With the Simes method, the original P values corresponding to 0.5, 1, 2, 3, and 4 h post baseline are ordered increasingly, that is, P 1 ≤ P 2 ≤ P 3 ≤ P 4 ≤ P 5. After the Simes correction, the P values were 5P 1, 5P 2/2, 5P 3/3, 5P 4/4, and P 5 respectively. If any of the 5 adjusted P values were <.05, assay sensitivity was claimed. Only the participants who completed all scheduled doses of study medication from day 1 to day 3 and had at least 1 ECG on day −1 (baseline) and at least 1 ECG on day 3 (time-matched day 3 data for the time-matched analysis) were included in the assay sensitivity test.
Electrocardiogram measurements at each time point were calculated as an average of 3 separate ECG extractions or replicates. (Each extraction was the mean of 3 beats.) If fewer than 3 measurements were available, the available samples were averaged (i.e., a minimum of 1 measure was required). For each subject, the time-matched baseline value was subtracted from the QT/QTc intervals to determine the change from baseline in QT/QTc intervals for that subject. The 2 null hypotheses described above were tested in a linear mixed-effect model with a compound symmetry covariance structure. The model included the baseline measure as covariate and treatment, time, and the treatment-by-time interaction as fixed effects, where time was a categorical variable and subject was a random effect.
The time-matched analysis was conducted on the QTcF change from the time-matched baseline as recommended by the ICH E14 guideline. Although modeling change from the time-matched baseline was the primary analysis, the change from the time-averaged baseline was also analyzed using the same model. For the averaged baseline, each triplicate ECG collection was averaged first, and then the averaged baseline was calculated based on all the averaged triplicate ECG and unscheduled ECGs.
as §1

healthy volunteers [7] = assay: Adverse events and discontinuations; format: in vivo, human
Experimental: as §1, with “Electrocardiogram” for “Standard triplicate 12-lead ECGs were obtained at 9 time points over 24 h at baseline on day 3 and at 2 time points on day 1. Electrocardiogram”

QT interval = settings: ref 16 (AC220), 17 (MLN518), 18 (sorafenib); cited from earlier work
[8] = moxifloxacin 400 mg, 1 h post dose on day 3

Tmax ([1]; human, plasma, oral, 75 mg, time of peak concentrations post dose, midostaurin dosing, days 1 and 3): 3 to 4 h
AUC(0-t) ([1]; human, plasma, po, 75 mg): 3510 ng·h/mL
Cmax ([1]; human, plasma, po, 75 mg, mean (SD), Day 1 (single dose), midostaurin 75 mg oral, plasma): 384 ng/mL
Cmax ([1]; human, plasma, po, 75 mg, mean (SD), Day 3 (twice daily), midostaurin 75 mg oral, plasma): 1250 ng/mL
Tmax ([1]; human, plasma, po, 75 mg, Tmax, median (range), Day 1 (single dose), midostaurin 75 mg oral, plasma): 4 h
Tmax ([1]; human, plasma, po, 75 mg, Tmax, median (range), Day 3 (twice daily), midostaurin 75 mg oral, plasma): 3.1 h
SMILES: CO[C@@H]1[C@H](N(C)C(=O)c2ccccc2)C[C@H]2O[C@]1(C)n1c3ccccc3c3c4c(c5c6ccccc6n2c5c31)C(=O)N[C@H]4O [CGP52421]
concentration versus QTcF slope (healthy volunteers [2]): 0.2
concentration versus QTcF slope (healthy volunteers [2]; listed as CPG52421): either negative or not statistically significant
concentration at steady state relative to midostaurin and CGP62221 ([3]; daily oral dosing of midostaurin, plasma): approximately seven
half-life ([3]; human participants): up to 1 month
treatment needed to reach the steady state ([3]; midostaurin dosing): 21 to 28 days

time of peak concentrations post dose [4]: 3 to 4 h
AUC0-12h, mean (SD) ([4]; po, 75 mg): 7848.2 (1579.9) ng * hour/mL
AUC0-24h, mean (SD) ([4]; po, 75 mg): 36 486.5 (9769.7) ng × hour/mL
SMILES: CN(C(=O)c1ccccc1)[C@@H]1C[C@H]2O[C@@](C)([C@@H]1O)n1c3ccccc3c3c4c(c5c6ccccc6n2c5c31)C(=O)NC4 [CGP62221]

SMILES: COc1c(N2C[C@@H]3CCCN[C@@H]3C2)c(F)cc2c(=O)c(C(=O)O)cn(C3CC3)c12 [Moxifloxacin, reference compound]
new U-wave abnormalities (healthy volunteers [5]; 12-lead ECG): 1 case
new post baseline T-wave abnormalities (healthy volunteers [5]; 12-lead ECG): 4 participants
PR increase ≥25% and resultant PR >200 ms, participants (healthy volunteers [5]; safety set): 0 no. (%)
QRS increase ≥25% and resultant QRS >100 ms, participants (healthy volunteers [5]; safety set): 0 no. (%)
QTcB >60 ms, time-matched change from baseline, participants (healthy volunteers [5]; safety set): 0 no. (%)
QTcF >30 ms, time-matched change from baseline, participants (healthy volunteers [5]; safety set): 0 no. (%)
QTcF >60 ms, time-matched change from baseline, participants (healthy volunteers [5]; safety set): 0 no. (%)
QTcI >30 ms, time-matched change from baseline, participants (healthy volunteers [5]; safety set): 0 no. (%)
QTcI >60 ms, time-matched change from baseline, participants (healthy volunteers [5]; safety set): 0 no. (%)
RR decrease ≥25% and resultant RR <600 ms, participants (healthy volunteers [5]; safety set): 0 no. (%)
RR increase ≥25% and resultant RR >1,200 ms, participants (healthy volunteers [5]; safety set): 0 no. (%)
QTcB New >450 ms, participants (healthy volunteers [5]; safety set, post baseline, text: between 450 and 480 ms): 1 (2.3%) no. (%)
QTcB >30 ms, time-matched change from baseline, participants (healthy volunteers [5]; safety set): 7 (15.9) no. (%)
QTcB >30 ms, time-matched change from baseline, participants (healthy volunteers [5]; safety set, listed as moxifloxacin): 7 (15.9%) no. (%)
mean slope estimates, concentration–QTc (QTcF interval; 5 other thorough QTc studies): 2.5 ms per μg/mL and 2.4 ms per μg/mL and 3.3 ms per μg/mL and 3.5 ms per μg/mL and 4.3 ms per μg/mL
effect on QTc intervals (QTcF interval): prolong QTc intervals in a dose-dependent manner
expected effect on the QTcF interval (QTcF interval; previous studies): 8 to 13 ms
upper limit of the 95% CI of QTcF prolongation from time-matched baseline (healthy volunteers [6]; moxifloxacin 400 mg, 1 h post dose): 14.9 ms
lower bound of 95% CI, QTcF change from time-averaged baseline compared with placebo (healthy volunteers [6]; [8]): 7.6 ms
lower bound of the 1-sided 95% CI of QTcF prolongation from time-matched baseline (healthy volunteers [6]; [8]): 6.4 ms and > 5 ms
maximum mean QTcF change from time-averaged baseline compared with placebo (healthy volunteers [6]; [8]): 10.2 ms
maximum mean QTcF prolongation from time-matched baseline compared with placebo (healthy volunteers [6]; moxifloxacin single 400-mg dose, 1 h post dose on day 3): 10.7 ms
Cmax ([1]; human, plasma, oral, 400 mg, geometric mean, moxifloxacin 400 mg overencapsulated, day 3): 2500 ng/mL
Cmax ([1]; human, plasma, oral, 400 mg, mean, moxifloxacin 400 mg overencapsulated, day 3): 2540 ng/mL
Cmax ([1]; human, plasma, oral, 400 mg, median, moxifloxacin 400 mg overencapsulated, day 3): 2460 ng/mL
Tmax ([1]; human, plasma, oral, 400 mg, Tmax, median, moxifloxacin 400 mg overencapsulated, day 3): 2.1 h
Cmax, mean ([1]; moxifloxacin 400 mg overencapsulated, day 3): 2544 ng/mL
Discontinued, main cause Adverse event(s) (healthy volunteers [7]; randomized set): 0 (0.0) no. (%)
Discontinued, main cause Death (healthy volunteers [7]; randomized set): 0 (0.0) no. (%)
Abdominal pain (healthy volunteers [7]; safety set, all grade 1/2): 0 (0.0) no. (%)
Arthralgia (healthy volunteers [7]; safety set, all grade 1/2): 0 (0.0) no. (%)
Diarrhea (healthy volunteers [7]; safety set, all grade 1/2): 1 (2.3) no. (%)
Dizziness (healthy volunteers [7]; safety set, all grade 1/2): 1 (2.3) no. (%)
Dry mouth (healthy volunteers [7]; safety set, all grade 1/2): 0 (0.0) no. (%)
Dysmenorrhea (healthy volunteers [7]; safety set, all grade 1/2): 0 (0.0) no. (%)
Dyspepsia (healthy volunteers [7]; safety set, all grade 1/2): 1 (2.3) no. (%)
Eructation (healthy volunteers [7]; safety set, all grade 1/2): 0 (0.0) no. (%)
Flatulence (healthy volunteers [7]; safety set, all grade 1/2): 1 (2.3) no. (%)
Flushing (healthy volunteers [7]; safety set, all grade 1/2): 0 (0.0) no. (%)
Headache (healthy volunteers [7]; safety set, all grade 1/2): 4 (9.1) no. (%)
Hiccups (healthy volunteers [7]; safety set, all grade 1/2): 0 (0.0) no. (%)
Hot flushes (healthy volunteers [7]; safety set, all grade 1/2): 0 (0.0) no. (%)
Nausea (healthy volunteers [7]; safety set, all grade 1/2): 5 (11.4) no. (%)
Pollakiuria (healthy volunteers [7]; safety set, all grade 1/2): 1 (2.3) no. (%)
Rash (healthy volunteers [7]; safety set, all grade 1/2): 1 (2.3) no. (%)
Salivary hypersecretion (healthy volunteers [7]; safety set, all grade 1/2): 0 (0.0) no. (%)
Sexually transmitted disease (healthy volunteers [7]; safety set, all grade 1/2): 0 (0.0) no. (%)
Vomiting (healthy volunteers [7]; safety set, all grade 1/2): 1 (2.3) no. (%)
Participants with adverse events (healthy volunteers [7]; safety set, all grade 1/2, 4-day evaluation period): 9 (20.5) no. (%)
Tachycardia (healthy volunteers [7]; safety set, grade 1, midostaurin-arm cases occurred during placebo run-in (day −1)): 0 (0.0) no. (%)
slope of QT change from baseline with increasing plasma concentration (healthy volunteers [2]; moxifloxacin, QT): 4.0
slope of QTcB change from baseline with increasing plasma concentration (healthy volunteers [2]; moxifloxacin, QTcB): 2.6
slope of QTcF change from baseline with increasing plasma concentration (healthy volunteers [2]; moxifloxacin, QTcF): 3.2 ms per μg/mL
Cmax previously reported ([3]; moxifloxacin): 2830 ng/mL

SMILES: CNC(=O)c1cc(Oc2ccc(NC(=O)Nc3ccc(Cl)c(C(F)(F)F)c3)cc2)ccn1 [sorafenib]
effect on QT interval in clinical trials (QT interval): induce prolongation of the QT interval
